How the values were obtained:
[1] = octanol-water partition coefficient; no reference given; cited from earlier work
[2] = Human cadaver skin permeation evaluation (static Franz cells); assay type: in vitro ADME
Procedure: Dermatomed full thickness human cadaver skin samples, 250–350 μm, were mounted onto static Franz cells. […] Phosphate buffered saline, pH 7.4 was used as the receptor medium. CGB400 gel was applied to the SC side of the skin samples at a dose of ~15 μl/cm^2 (~15 mg/cm^2). The cells were kept in a chamber at 37°C for a period of 24 h. Stirrers in the receptor chamber ensured that the receptor media was well mixed during this time. The receptor media was sampled at 4, 7, and 24 h to quantify the amount of choline and geranic acid permeation. After 24 h, the skin surface was washed before removing the SC by tape stripping. The SC was stripped from the epidermis using an adhesive tape up to 10 layers (SC1, SC2‐5, SC6‐10). Following SC removal, the epidermis was separated from the dermis using a surgical sterile scalpel and the dermis was cut into pieces. Each layer was collected separately in glass vials containing 2 ml of 50:50 water:methanol mixture and was left to shake overnight to extract the choline and geranic acid. The amount of choline and geranic acid was measured using LC–MS/MS in the wash, epidermis, dermis, and the receptor medium.

| Compound | LogP [1] | applied CAGE1:2 dose penetrated into the dermis [2] | molar ratio of choline to geranic acid in the epidermis [2] |
| --- | --- | --- | --- |
| C[N+](C)(C)CCO [choline] | −3.7 |  |  |
| CC(C)=CCC/C(C)=C/C(=O)O [geranic acid] | 2.8 |  |  |
| Choline geranate [CAGE1:2] |  | About 9.5% | 1.18 |
